Row | SMILES | melting point [°C]
1 | CCOC(=O)Nc1nc(-c2ccccc2)c(-c2nc3ccccc3c(=O)n2-c2ccccc2)s1 | 245 to 247
2 | COc1ccc(Cl)cc1C(=O)NCCc1ccc(-c2ccc(F)cc2)c(S(N)(=O)=O)c1 | 195
3 | COc1ccc(N=Nc2ccc(O)c(C(=O)Nc3ccc4cn[nH]c4c3)c2)cc1 | 279
4 | COC(=O)C(Br)c1ccc2c(c1)OCO2 (centres undefined) | 39 to 41
5 | O=C(OC1CCCC1)c1ncn2c1[C@@H]1CCCN1C(=O)c1c(Cl)cccc1-2 | 210 to 212
6 | O=C(Nc1ccc(-n2nc(C(F)(F)F)cc2C(F)(F)F)cc1)c1cccnc1F | 110 to 112
7 | CC1(C)CCC(C)(C)c2c(CO)cc(-c3ccccc3)cc21 | 80 to 82
8 | COc1ccc(-c2ccc3c(c2)C(C)(C)CCC3(C)C)cc1-c1ccc(C(=O)O)cc1 | 148 to 152
9 | COc1ccc(/C=C/c2c(Cl)cncc2Cl)c2c1OC(C)(C)C2 | 114 to 118
10 | CCc1ccc(OCCCN2CCC(C(O)(c3ccc(F)cc3)c3ccc(F)cc3)CC2)c(OC)c1 | 118 to 120
11 | COC(=O)c1oc2c(sc3ccccc32)c1O | 124 to 125
12 | N#Cc1nnc2n1-c1ccc(Cl)cc1C(c1ccccc1)=NC2 | 191 to 192
13 | c1cnc(C2CC(c3cnccn3)CC(c3cnccn3)C2)cn1 (centres undefined) | 122 to 124
14 | COc1cc(N)ccc1-c1cnc(C)s1 | 125 to 129
15 | COC(=O)Nc1ccc(CCc2cc(OC)ccc2OC)cc1C(=O)OC | 80 to 82
16 | CCCc1nc2c(N)nc3cc(-c4ccccc4C(N)=O)ccc3c2s1 | 274 to 276
17 | CCCCn1cnc2c(Oc3cccc(OC)c3)nc(Nc3ccc(F)cc3)nc21 | 138 to 140
18 | N#CCCNC(=O)c1cccc(-c2ccc3c(n2)N(c2ccc(Cl)cc2Cl)CC3)c1 | 219 to 220
19 | COc1ccc(OC)c(CCc2ccc3ncn(C)c(=O)c3c2)c1 | 83 to 85
20 | NC(=O)NC(=O)C(Cl)(Cl)CC1(c2cc(Cl)cc(Cl)c2)CO1 (centres undefined) | 186 to 189
21 | CCN1C(=O)C(=O)c2cc(S(=O)(=O)N(C)C)ccc21 | 165 to 167

Row | SMILES | melting point [°C]
22 | O=C(O)c1c(Oc2ccccc2)cccc1Oc1ccccc1 | 164 to 165
23 | COC(=O)c1ccc(CCCCc2c(C)cc(C)cc2C)cc1 | 52 to 53
24 | Cc1cc(-c2cc(CO)c(=O)n(CC(C)C)n2)ccc1F | 107 to 110
25 | Cn1ccc(=O)c(O)c1Cc1cccnc1 | 209 to 212
26 | O=c1c2c(Cc3ccccc3)n[nH]c2c2ccncc2n1-c1ccccc1 | 303 to 307
27 | CCCC(=O)c1cc2c(=O)c(C(=O)O)c[nH]c2cc1C | 249 to 252
28 | NC(=O)c1ncoc1-c1cccc(O)c1 | 202 to 204
29 | CCCOc1ccccc1-c1nc2nc(SC)ncc2c(=O)[nH]1 | 179 to 181
30 | COc1cc(Br)ccc1-c1ccc(Br)cc1N | 94.5 to 97
31 | CCOC(=O)c1ccc2cc[nH]c2c1 | 72 to 75
32 | COc1cc2c(cc1O)CCN(Cc1cc(OC)c(OC)c(OC)c1)C2 | 170 to 171
33 | CNC(=O)c1cc(=NS(=O)(=O)c2ccccc2)c2c(Cl)cc(Cl)cc2[nH]1 | 196 to 197
34 | C=CCOc1ccc(Nc2nccc(-c3cccnc3)n2)cc1 | 105 to 108
35 | Cc1nnc(-c2cccc(I)c2)s1 | 86 to 89
36 | CCOC(=O)CCC(O)c1ccc(-c2ccccc2F)cc1 (centres undefined) | 61 to 62
37 | CN(C)C1(c2ccccc2Cl)C(=O)N(Cc2ccc([N+](=O)[O-])cc2)c2ccc(Cl)cc21 (centres undefined) | 189 to 193
38 | O=[N+]([O-])c1ccc(Oc2ccc3ccc(Oc4ccc([N+](=O)[O-])c(O)c4)cc3c2)cc1O | 218 to 220
39 | COC1CN(CCC(C(=O)N(C)C)(c2ccccc2)c2ccccc2)CCC1NC(=O)c1ccccc1 (centres undefined) | 147
40 | CCOC(=O)c1cc(NC(=O)C(CS)Cc2ccc(Cl)cc2)c[nH]1 (centres undefined) | 140 to 143
41 | CC(C)Cn1c(=O)[nH]c(=O)c2nccnc21 | 200 to 201
42 | CCc1cccc(-c2cn(C)cc(-c3ccccc3)c2=O)c1 | 135 to 137

Row | SMILES | melting point [°C]
43 | C#CCOc1cc(-n2nc(CC)c(CC)c2CC)c(F)cc1Cl | 62 to 65
44 | CCn1c(C(O)(c2cccc(C(F)(F)F)c2)c2cccc(C(F)(F)F)c2)nc(-c2ccncc2)c1-c1ccc(Cl)cc1 | 193 to 195
45 | Cc1cccc(NC2=NCCO2)c1C | 112 to 114
46 | CCCCCCCCCCCCCCCCCCOc1cc(OCCCOc2ccccc2)cc(C(=O)O)c1 | 79 to 81
47 | CSc1ccc2c(c1)CN(C(C)C)S(=O)(=O)N2CCCl | 74 to 75
48 | O=Cc1ccn(-c2cc3[nH]c(=O)c(=O)[nH]c3cc2[N+](=O)[O-])c1 | > 250
49 | O=C(Nc1ccc(-n2nc(C(F)(F)F)cc2C(F)(F)F)cc1)c1c(F)cccc1F | 127 to 128
50 | COC(=O)C=NOCc1c(F)cccc1COc1ccccc1C | 108
51 | CCOc1nccc(C(=O)OC)c1N | 59 to 60.5
52 | COc1nc(C(F)(F)C(F)(F)F)cc(=O)n1-c1cc(O)c(Cl)cc1F | 143 to 145
53 | NCc1ccc(-c2nc(-c3ccccc3)c(-c3ccncc3)[nH]2)cc1 | 214 to 215
54 | Cc1cccc(NC(=O)Nc2nnc(C(F)(F)F)s2)c1 | 255 to 257
55 | CCOC(=O)C(=O)c1ccc2c(c1)CCO2 | 139 to 141
56 | COC(=O)CCC(=O)CCl | 8 to 13
57 | CCCCc1nc2cc(-c3ccccc3)cc(C(=O)O)c2n1Cc1ccccc1Cl | 236 to 238
58 | COCCOCC(=O)Nc1c([N+](=O)[O-])cnn1-c1c(Cl)cc(C(F)(F)F)cc1Cl | 103 to 105
59 | CC1(C)N=C(Oc2ccccn2)c2cc(F)ccc2O1 | 114
60 | O=C(NCCO)c1ccc(-c2ccc3nnn(Cc4ccc5ncccc5c4)c3n2)cc1 | > 260
61 | O=[N+]([O-])c1c(Nc2ccc3[nH]ccc3c2)ncnc1-c1ccc(C(F)(F)F)cc1F | 147 to 149

Next, values leading:

Row | melting point [°C] | SMILES
62 | 163 to 168 | CCN(CC)C1CCN(c2cccc(-c3cnn4c(N)c(-c5cccc(Cl)c5)c(C)nc34)c2)CC1
63 | 130 to 132 | CCCN1CCN(c2cccc3ccc(NC(=O)c4ccc(Cl)cc4)cc23)CC1
64 | 172 to 173 | O=S1(=O)c2cccc3cccc(c23)N1CCCN1CCN(c2nsc3ccccc23)CC1
65 | 57 | CN1CCN(CCOc2cccc3c2c2cccc4c2n3C(c2ccccc2)CO4)CC1 (centres undefined)
66 | > 250 | Nc1nc2ccccc2c2c1ncn2CC1(O)CCCCC1
67 | 200 to 202 | Cc1c(F)cccc1C(=O)Nc1ccc(C(=O)N2CCCC(=O)c3sccc32)cc1
68 | 268 to 270 | Nc1cc(C(=O)NNC(=O)c2occ(-c3ccccc3)c2-c2ccccc2)ccc1O
69 | 97 | CC(C)[C@@H](C(=O)N1C(=O)O[C@@H](c2ccccc2)[C@H]1C)[C@@H](O)[C@@H]1OC(C)(C)N(C(=O)OC(C)(C)C)[C@H]1CC1CCCCC1
70 | 173 | COC1CC(NC(C)=O)C(OC(=O)c2ccccc2)C(CBr)O1 (centres undefined)
71 | 149 to 151 | CCCCCCCCNC(=O)Nc1ccccc1C(=O)NC1CCN(C(c2ccccc2)c2ccccc2)CC1
72 | 136 to 139 | CCOC(=O)C1=CNC2=C(C(=O)OC)CCC(C)N2C1=O (centres undefined)
73 | 96 to 98 | CC(C)(C)OC(=O)N1CCC(CN2C(=O)C3(COc4cc5c(cc43)CCO5)c3ccccc32)CC1 (centres undefined)
74 | 102 to 103 | COC(=O)C(C)(C)Cc1c(SC(C)(C)C)c2cc(OC)ccc2n1Cc1ccc(Cl)cc1
75 | 104 to 106 | CC1CC(N)=NN1c1ccccc1 (centres undefined)
76 | 246 to 249 | O=C(O)c1ccc(NC(=O)c2ccccc2-c2ccccc2)cc1
77 | > 235 | O=C(Nc1ccc(C(=O)O)cc1)OCc1ccccc1
78 | 178 to 181 | CC(C)(C)OC(=O)N(CC(=O)OCN1C(=O)CCC(N2C(=O)c3ccccc3C2=O)C1=O)C(=O)CN (centres undefined)
79 | 270 | O=C(NCc1ccc2c(c1)OCO2)c1ccc2[nH]c(=O)n(Cc3cccs3)c(=O)c2c1
80 | 125 to 127 | O=C1NC(C(=O)NCCO[N+](=O)[O-])C(c2ccc(Cl)cc2)S1 (centres undefined)

Row | melting point [°C] | SMILES
81 | 133 to 134 | Cc1ccc(CC(CC(=O)N2CC3CCCCC3C2)C(=O)O)cc1 (centres undefined)
82 | 232 to 234 | CC[C@H](C)[C@H](NC(=O)Nc1ccccc1C(F)(F)F)C(=O)N[C@H](CO)Cc1c[nH]c2ccccc12
83 | 165 to 166 | COc1cc(-c2c(Cl)c(CNC(C)(C)C)nc3sc4c(c23)CCN(C(=O)c2ccccc2)C4)ccc1OC(C)C
84 | 139 to 140 | COC(=O)c1cc(CCC(=O)NCc2ccccc2)ccc1O
85 | 259 to 260 | CC(C)(C)C(=O)C1=C(O)C(=O)N(c2ccc(-c3ccon3)cc2)C1C1CCCCC1 (centres undefined)
86 | 193 to 195 | CC(=O)N(O)C(C)c1cccc(Nc2ccccc2C(=O)NN)c1Cl (centres undefined)
87 | 219 | NC(=O)c1cn2c(nc1=O)CCCCC2
88 | 109 to 110 | COC(=O)C1CC(C#N)(c2ccc(OC(F)F)c(OC3CCCC3)c2)CCC1=O (centres undefined)
89 | 144 to 145 | Cc1cc2c(c(C)c1O)C(C)CN2C(=O)C(C)(C)C (centres undefined)
90 | 162 to 164 | O=C(CC1CCCC1)Nc1ccc2c(c1)C(=O)C(Br)CC2 (centres undefined)
91 | 186 to 188 | COc1ccc(-n2nc(Sc3ccc(C(C)(C)C)cc3)c(C)c(C#N)c2=O)cc1
92 | 135 to 138 | CC(C)CC(=O)Nc1cccc(-c2ccnc3c(-c4cccc(CN5CCN(C)CC5)c4)cnn23)c1
93 | 199 to 204 | O=C1Cc2cc(CCN3CCC(c4noc5cc(F)ccc45)CC3)ccc2N1
94 | 146 to 148 | CC(C)(C(=O)O)c1ccc(-c2ccc(Cl)cc2)s1
95 | 65 to 66 | CC(=O)C(C)(C)Nc1ccccc1
96 | 194 | CCOc1cc(C(CC(=O)O)N2Cc3ccccc3C2=O)ccc1OC (centres undefined)
97 | 159 to 161 | O=C(SCCCC(=O)N1CCC[C@H]1C(=O)O)c1ccccc1
98 | 305 to 309 | CC(=O)c1ccc2nc3ccc(C(=O)O)cc3c(=O)n2c1
99 | 103 to 104 | COc1ccc2c(c1)C(C)(C)Oc1c-2ccc(O)c1C(C)=O

— a melting point compilation (Tetko et al.; mined from patent text by program, amines drawn as free bases though some values may be those of a salt)
